Experimental data taken from US11986471B2, “Compounds and methods of use” (Tango Therapeutics, Inc., priority 2018, dated 2024).

Columns and labels:
PRMT5 [1] = target: T1, PRMT5 (Homo sapiens, UniProt O14744); assay: PRMT5 IC50 assay in the presence of SAM as cofactor; format: biochemical
T1 construct: purchased Viva (custom protein)
Outline: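 Potency against PRMT5 is compared across cofactor states, where IC50 equals Ki×1.5 with SAM present and Ki×13.5 with MTA present.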

PRMT5 [2] = target: T1, PRMT5; assay: PRMT5 IC50 assay with no cofactor; format: biochemical
Outline: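 Cofactor-free, SAM and MTA formats; IC50 μM; Ki = IC50/1.5 for SAM, IC50/13.5 for MTA.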

PRMT5 [3] = target: T1, PRMT5; assay: PRMT5 IC50 assay in the presence of MTA as cofactor; format: biochemical; conditions: for IC50: PRMT5, MTA as cofactor; for SAM/MTA Ratio: ratio between the Ki in the presence of SAM and the Ki in the presence of MTA
Outline: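 Three cofactor conditions tested for PRMT5 inhibition: none, MTA and SAM, each giving an IC50. For conversion to Ki, the MTA-condition IC50 is divided by 13.5 and the SAM-condition IC50 by 1.5, and the two Ki values are expressed as a SAM/MTA ratio.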

HAP1 MTAP-intact = assay: SDMA in-cell western assay, HAP1 MTAP-intact cell line; format: cell-based; conditions: Homo sapiens
Outline: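 HAP1 isogenic pair: endogenous MTAP vs MTAP-null. Readout SDMA by in-cell western; IC50 per line. Ratio ≥3 fold = MTAP-selective.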

HAP1 MTAP-deleted = assay: SDMA in-cell western assay, HAP1 MTAP-deleted cell line; format: cell-based; conditions: for IC50: Homo sapiens, HAP1 MTAP-deleted cell line; for MTAP Intact/Deleted Ratio: IC50 ratio HAP1 MTAP-intact / HAP1 MTAP-deleted
Outline: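 IC50 from SDMA in-cell western; HAP1 line lacking MTAP (null), paired isogenically with MTAP-intact HAP1 expressing endogenous MTAP.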

T1 sequence (O14744 whole entry): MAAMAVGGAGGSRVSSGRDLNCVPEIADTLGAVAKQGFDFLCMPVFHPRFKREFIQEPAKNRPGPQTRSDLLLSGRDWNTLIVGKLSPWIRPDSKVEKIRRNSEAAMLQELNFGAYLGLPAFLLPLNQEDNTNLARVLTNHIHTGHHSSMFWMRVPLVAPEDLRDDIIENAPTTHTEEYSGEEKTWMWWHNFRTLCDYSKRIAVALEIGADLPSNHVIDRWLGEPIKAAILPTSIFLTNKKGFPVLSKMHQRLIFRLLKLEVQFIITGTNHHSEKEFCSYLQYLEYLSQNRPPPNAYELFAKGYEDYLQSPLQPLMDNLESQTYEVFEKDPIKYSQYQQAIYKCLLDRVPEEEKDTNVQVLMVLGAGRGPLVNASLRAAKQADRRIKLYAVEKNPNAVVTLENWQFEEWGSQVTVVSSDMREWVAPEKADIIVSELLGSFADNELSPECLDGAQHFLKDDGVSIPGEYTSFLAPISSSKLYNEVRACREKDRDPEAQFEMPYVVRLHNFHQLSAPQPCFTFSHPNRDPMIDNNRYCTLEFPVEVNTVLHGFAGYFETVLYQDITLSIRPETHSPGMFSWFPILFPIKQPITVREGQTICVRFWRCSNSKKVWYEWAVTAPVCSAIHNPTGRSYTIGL
T1 sequence (Q9BQA1 whole entry partner): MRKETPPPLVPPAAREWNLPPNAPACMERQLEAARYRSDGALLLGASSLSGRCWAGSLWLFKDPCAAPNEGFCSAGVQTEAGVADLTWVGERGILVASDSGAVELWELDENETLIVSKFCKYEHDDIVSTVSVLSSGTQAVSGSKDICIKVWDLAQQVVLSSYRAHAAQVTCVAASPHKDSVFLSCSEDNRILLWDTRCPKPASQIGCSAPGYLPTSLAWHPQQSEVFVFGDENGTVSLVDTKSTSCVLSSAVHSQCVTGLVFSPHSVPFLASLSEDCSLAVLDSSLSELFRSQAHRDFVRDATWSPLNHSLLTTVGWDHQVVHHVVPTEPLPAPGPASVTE

SMILES | IC50 (PRMT5 [1]) [nM] | IC50 (PRMT5 [2]) [nM] | IC50 (PRMT5 [3]) [nM] | IC50 (HAP1 MTAP-intact) [nM] | IC50 (HAP1 MTAP-deleted) [nM] | SAM/MTA Ratio (PRMT5 [3]) | MTAP Intact/Deleted Ratio (HAP1 MTAP-deleted)
CC(C)CC(=O)N1CCC(Nc2cc(C(=O)NC[C@H](O)CN3CCc4c(ccc(OCc5cnco5)c4Cl)C3)ccn2)CC1 [Compound 443, (S)—N-(3-(5-chloro-6-(oxazol-5-ylmethoxy)-3N-dihydroisoquinolin-2(1H)-yl)-2-hydroxypropyl)-2-((1-(3-methylbutanoyl)piperidin-4-yl)amino)isonicotinamide] | 50 to 500 | 500 to 5000 | 50 to 500 | ≥ 10000 | < 1000 | A (a Ki ratio greater than or equal to 10 fold between the Ki in the presence of SAM and the Ki in the presence of MTA) | A* (an IC50 ratio greater than or equal to 10 fold between the IC50 in the HAP1 MTAP-intact cell line and the HAP1 MTAP-deleted cell line)
CCN(C)c1cc(C(=O)NC[C@H](O)CN2CCc3c(ccc(OCc4cnco4)c3Cl)C2)cc(NC2CCC2)n1 [Compound 445, (S)—N-(3-(5-chloro-6-(oxazol-5-ylmethoxy)-3N-dihydroisoquinolin-2(1H)-yl)-2-hydroxypropyl)-2-(cyclobutylamino)-6-(ethyl(methyl)amino)isonicotinamide] | 500 to 5000 | ≥ 5000 | 50 to 500 | ≥ 10000 | ≥ 10000 | A (a Ki ratio greater than or equal to 10 fold between the Ki in the presence of SAM and the Ki in the presence of MTA) | C* (an IC50 ratio of less than 3 fold between the IC50 in the HAP1 MTAP-intact cell line and the HAP1 MTAP-deleted cell line)
CC(C)CC(=O)N1CCC(Nc2cc(C(=O)NC[C@H](O)CN3CCc4cc(OCc5cnco5)ccc4C3)ccn2)CC1 [Compound 446, N-[(2S)-2-hydroxy-3-[6-(oxazol-5-ylmethoxy)-3,4-dihydro-1H-isoquinolin-2-yl]propyl]-2-[[1-(3-methylbutanoyl)-4-piperidyl]amino]pyridine-4-carboxamide] | 50 to 500 | 500 to 5000 | < 50 | 1000 to 10000 | < 1000 | A (a Ki ratio greater than or equal to 10 fold between the Ki in the presence of SAM and the Ki in the presence of MTA) | C* (an IC50 ratio of less than 3 fold between the IC50 in the HAP1 MTAP-intact cell line and the HAP1 MTAP-deleted cell line)
Cc1c(OCc2cnco2)ccc2c1CCN(C[C@@H](O)CNC(=O)c1ccnc(NC3CCN(C(=O)CC(C)C)CC3)c1)C2 [Compound 447, (S)—N-(2-hydroxy-3-(5-methyl-6-(oxazol-5-ylmethoxy)-3N-dihydroisoquinolin-2(1H)-yl)propyl)-2-((1-(3-methylbutanoyl)piperidin-4-yl)amino)isonicotinamide] | 50 to 500 | 500 to 5000 | 50 to 500 | ≥ 10000 | < 1000 | A (a Ki ratio greater than or equal to 10 fold between the Ki in the presence of SAM and the Ki in the presence of MTA) | A* (an IC50 ratio greater than or equal to 10 fold between the IC50 in the HAP1 MTAP-intact cell line and the HAP1 MTAP-deleted cell line)
CC(C)(C)C(=O)N1CCC(Nc2cc(C(=O)NC[C@H](O)CN3CCc4cc(OCc5cnco5)ccc4C3)ccn2)CC1 [Compound 449, 2-[[1-(2,2-dimethylpropanoyl)-4-piperidyl]amino]-N-[(2S)-2-hydroxy-3-[6-(oxazol-5-ylmethoxy)-3,4-dihydro-1H-isoquinolin-2-yl]propyl]pyridine-4-carboxamide] | 50 to 500 | 500 to 5000 | 50 to 500 | 1000 to 10000 | < 1000 | A (a Ki ratio greater than or equal to 10 fold between the Ki in the presence of SAM and the Ki in the presence of MTA) | C* (an IC50 ratio of less than 3 fold between the IC50 in the HAP1 MTAP-intact cell line and the HAP1 MTAP-deleted cell line)
O=C(NC[C@H](O)CN1CCc2cc(OCc3cnco3)ccc2C1)c1ccnc(NC2CCN(C(=O)C3CC3)CC2)c1 [Compound 450, 2-[[1-(cyclopropanecarbonyl)-4-piperidyl]amino]-N-[(2S)-2-hydroxy-3-[6-(oxazol-5-ylmethoxy)-3,4-dihydro-1H-isoquinolin-2-yl]propyl]pyridine-4-carboxamide] | 50 to 500 | 500 to 5000 | 50 to 500 | ≥ 10000 | < 1000 | A (a Ki ratio greater than or equal to 10 fold between the Ki in the presence of SAM and the Ki in the presence of MTA) | A* (an IC50 ratio greater than or equal to 10 fold between the IC50 in the HAP1 MTAP-intact cell line and the HAP1 MTAP-deleted cell line)
CC(C)C(=O)N1CCC(Nc2cc(C(=O)NC[C@H](O)CN3CCc4c(ccc(OCc5cnco5)c4Cl)C3)ccn2)CC1 [Compound 452] | 50 to 500 | 500 to 5000 | 50 to 500 | ≥ 10000 | 1000 to 10000 | A (a Ki ratio greater than or equal to 10 fold between the Ki in the presence of SAM and the Ki in the presence of MTA) | B* (an IC50 ratio greater than or equal to 3 fold but lower than 10 fold between the IC50 in the HAP1 MTAP-intact cell line and the HAP1 MTAP-deleted cell line)

The next lines start with results.

IC50 (PRMT5 [1]) [nM] | IC50 (PRMT5 [2]) [nM] | IC50 (PRMT5 [3]) [nM] | IC50 (HAP1 MTAP-intact) [nM] | IC50 (HAP1 MTAP-deleted) [nM] | SMILES | SAM/MTA Ratio (PRMT5 [3]) | MTAP Intact/Deleted Ratio (HAP1 MTAP-deleted)
50 to 500 | 500 to 5000 | 50 to 500 | ≥ 10000 | < 1000 | CCCC(=O)N1CCC(Nc2cc(C(=O)NC[C@H](O)CN3CCc4c(ccc(OCc5cnco5)c4Cl)C3)ccn2)CC1 [Compound 442, (S)-2-((1-butyrylpiperidin-4-yl)amino)-N-(3-(5-chloro-6-(oxazol-5-ylmethoxy)-3,4-dihydroisoquinolin-2(1H)-yl)-2-hydroxypropyl)isonicotinamide] | A (a Ki ratio greater than or equal to 10 fold between the Ki in the presence of SAM and the Ki in the presence of MTA) | A* (an IC50 ratio greater than or equal to 10 fold between the IC50 in the HAP1 MTAP-intact cell line and the HAP1 MTAP-deleted cell line)
50 to 500 | ≥ 5000 | 50 to 500 | ≥ 10000 | 1000 to 10000 | Cc1ncoc1COc1ccc2c(c1C)CCN(C[C@@H](O)CNC(=O)c1cc(NC3COC3)nc(N3CCN(C(C)C)CC3)n1)C2 [Compound 444, N-[(2S)-2-hydroxy-3-{5-methyl-6-[(4-methyl-1,3-oxazol-5-yl)methoxy]-1,2,3,4-tetrahydroisoquinolin-2-yl}propyl]-6-[(oxetan-3-yl)amino]-2-[4-(propan-2-yl)piperazin-1-yl]pyrimidine-4-carboxamide] | A (a Ki ratio greater than or equal to 10 fold between the Ki in the presence of SAM and the Ki in the presence of MTA) | C* (an IC50 ratio of less than 3 fold between the IC50 in the HAP1 MTAP-intact cell line and the HAP1 MTAP-deleted cell line)
50 to 500 | 500 to 5000 | 50 to 500 | < 1000 | < 1000 | CN1CCN(c2cc(C(=O)NC[C@H](O)CN3CCc4cc(OCc5cnco5)ccc4C3)cc(NC3CCC3)n2)CC1 [Compound 448] | A (a Ki ratio greater than or equal to 10 fold between the Ki in the presence of SAM and the Ki in the presence of MTA) | C* (an IC50 ratio of less than 3 fold between the IC50 in the HAP1 MTAP-intact cell line and the HAP1 MTAP-deleted cell line)
50 to 500 | 500 to 5000 | 50 to 500 | ≥ 10000 | ≥ 10000 | CC(=O)N1CC(Nc2cc(C(=O)NC[C@H](O)CN3CCc4cc(OCc5cnco5)ccc4C3)ccn2)C1 [Compound 451] | A (a Ki ratio greater than or equal to 10 fold between the Ki in the presence of SAM and the Ki in the presence of MTA) | C* (an IC50 ratio of less than 3 fold between the IC50 in the HAP1 MTAP-intact cell line and the HAP1 MTAP-deleted cell line)
50 to 500 | 500 to 5000 | 50 to 500 | 1000 to 10000 | < 1000 | Cc1ncoc1COc1ccc2c(c1)CCN(C[C@@H](O)CNC(=O)c1cc(NC3COC3)nc(N3CCN(C(=O)C(C)C)CC3)n1)C2 [Compound 454, N-[(2S)-2-hydroxy-3-{6-[(4-methyl-1,3-oxazol-5-yl)methoxy]-1,2,3,4-tetrahydroisoquinolin-2-yl}propyl]-2-[4-(2-methylpropanoyl)piperazin-1-yl]-6-[(oxetan-3-yl)amino]pyrimidine-4-carboxamide] | A (a Ki ratio greater than or equal to 10 fold between the Ki in the presence of SAM and the Ki in the presence of MTA) | B* (an IC50 ratio greater than or equal to 3 fold but lower than 10 fold between the IC50 in the HAP1 MTAP-intact cell line and the HAP1 MTAP-deleted cell line)
